These results are taken from PubChem BioAssay (NCI).

“And” between values parts separate entries of the source, which are not always exact repeats. Equal values may be shown once.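 Tested at 5 concentrations; 48 h exposure; 96-well plates; endpoints linearly interpolated, else capped at highest concentration. At the GI50, growth is halved. TGI is the concentration that stops growth completely.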 Where only a bound is given, the exact number is not on record here.

Among the test systems are NCI-H460 lung; BT-549 breast; SK-MEL-5 melanoma; HOP-62 NSCLC; HCC-2998 colon; HCT-15 colon; K-562 leukemia; SK-MEL-28 melanoma; HL-60(TB) leukemia; NCI/ADR-RES ovarian.
Assay in all cases: NCI-60 cell line screen, 48 h

Consider `CS(=O)(=O)N(c1cc(-c2ccc3ncnc(Nc4ccc(F)c(Cl)c4)c3c2)cnc1Cl)S(C)(=O)=O`, for which the GI50 is 1.76 µM with NCI-H460 lung; 0.638 µM with BT-549 breast; 0.978 µM in the experiment on SK-MEL-5 melanoma; 0.957 µM in the experiment with HOP-62 NSCLC; 1.58 µM in the experiment on HCC-2998 colon; 0.945 µM in the experiment on HCT-15 colon. For the same compound, the GI50 is 2.45 µM in the experiment with K-562 leukemia, 0.54 µM with SK-MEL-28 melanoma, 0.49 µM in the experiment on HL-60(TB) leukemia and 2.54 µM with NCI/ADR-RES ovarian. Besides, the TGI turned out to be 13.5 µM in the experiment on NCI-H460 lung; 5.06 µM with BT-549 breast; 2.42 µM with SK-MEL-5 melanoma; 14.7 µM with HOP-62 NSCLC; 8.43 µM with HCC-2998 colon; 13.9 µM in the experiment on HCT-15 colon. Besides, the TGI in the experiment on K-562 leukemia is above 100 µM; in the experiment on SK-MEL-28 melanoma, 4.93 µM; in the experiment with HL-60(TB) leukemia, 5.35 µM; in the experiment with NCI/ADR-RES ovarian, 20.9 µM.

With `CC[C@H](C)[C@H](NC(=O)c1cccn1C)C(=O)N(C)[C@H](C[C@@H](OC(C)=O)c1nc(C(=O)N[C@@H](Cc2ccccc2)C[C@H](C)C(=O)OC)cs1)C(C)C`, the GI50 was 0.123 µM in the experiment with NCI-H460 lung; 0.155 µM in the experiment with BT-549 breast; 0.103 µM in the experiment on SK-MEL-5 melanoma; 0.32 µM with HOP-62 NSCLC; 0.166 µM in the experiment with HCC-2998 colon; 0.337 µM with HCT-15 colon. Also, the GI50 was 0.177 µM with K-562 leukemia, 1.5 µM in the experiment on SK-MEL-28 melanoma, 0.076 µM in the experiment with HL-60(TB) leukemia and 1.2 µM in the experiment with NCI/ADR-RES ovarian. In addition, the TGI was above 14.4 µM with NCI-H460 lung; 2.48 µM in the experiment with BT-549 breast; 0.736 µM in the experiment on SK-MEL-5 melanoma; above 33.3 µM in the experiment with HOP-62 NSCLC; above 33.3 µM with HCC-2998 colon; above 33.3 µM in the experiment with HCT-15 colon. For the same compound, the TGI with K-562 leukemia is above 33.3 µM; in the experiment on SK-MEL-28 melanoma, above 33.3 µM; in the experiment with HL-60(TB) leukemia it was 0.208 µM; in the experiment on NCI/ADR-RES ovarian, above 33.3 µM.

As for `COc1ccc(S(=O)(=O)N(C(C)=O)c2ccccc2/C=C/c2cc[n+]([O-])cc2)cc1`, the GI50 with NCI-H460 lung was 0.412 µM; in the experiment on BT-549 breast, 0.56 µM; with SK-MEL-5 melanoma it was 0.703 µM; with HOP-62 NSCLC, 0.86 µM; with HCC-2998 colon, 2.27 µM; in the experiment with HCT-15 colon, 0.742 µM. Moreover, the GI50 in the experiment on K-562 leukemia was 0.321 µM; in the experiment with SK-MEL-28 melanoma, above 4.8 µM; with HL-60(TB) leukemia, 0.64 µM; in the experiment with NCI/ADR-RES ovarian, 2.51 µM. The TGI with NCI-H460 lung, with BT-549 breast, in the experiment on SK-MEL-5 melanoma, in the experiment with HOP-62 NSCLC, in the experiment with HCC-2998 colon and in the experiment on HCT-15 colon was above 10 µM in each case. The TGI in the experiment on K-562 leukemia was above 3.17 µM; in the experiment on SK-MEL-28 melanoma, above 10 µM; in the experiment with HL-60(TB) leukemia, above 6.53 µM; in the experiment with NCI/ADR-RES ovarian, above 10 µM.

In the case of `N#Cc1cccc(N2C(=O)C3C4C=CC(C3C2=O)C2C(=O)N(c3cccc(C#N)c3)C(=O)C42)c1` (centres undefined), the TGI with NCI-H460 lung was above 63.1 µM; in the experiment with BT-549 breast it was 72.1 µM; in the experiment with SK-MEL-5 melanoma it was above 63.1 µM; in the experiment with HOP-62 NSCLC, 38.1 µM; in the experiment with HCC-2998 colon, above 56.2 µM; with HCT-15 colon, above 63.1 µM. Besides, the TGI is 55.8 µM in the experiment on K-562 leukemia, above 63.1 µM in the experiment on SK-MEL-28 melanoma, above 100 µM in the experiment with HL-60(TB) leukemia and above 100 µM in the experiment on NCI/ADR-RES ovarian.

In the case of `N#Cc1cccc(C2C3=C(COC3=O)N(CCO)c3cc4c(cc32)OCO4)c1` (centres undefined), the GI50 in the experiment with NCI-H460 lung is 1.83 µM; with BT-549 breast it was 1.98 µM; in the experiment with SK-MEL-5 melanoma it was 1.07 µM; with HOP-62 NSCLC, 2.1 µM; with HCC-2998 colon, 4.6 µM; in the experiment with HCT-15 colon, 0.971 µM. The GI50 was 0.294 µM in the experiment with K-562 leukemia, 25.5 µM with SK-MEL-28 melanoma, 1.32 µM in the experiment with HL-60(TB) leukemia and 3.46 µM in the experiment on NCI/ADR-RES ovarian. In addition, the TGI with NCI-H460 lung, in the experiment on BT-549 breast, in the experiment with SK-MEL-5 melanoma, in the experiment on HOP-62 NSCLC, with HCC-2998 colon and in the experiment on HCT-15 colon was above 50 µM throughout. Also, the TGI in the experiment with K-562 leukemia was above 50 µM; with SK-MEL-28 melanoma, above 50 µM; with HL-60(TB) leukemia, 4.36 µM; with NCI/ADR-RES ovarian it was above 50 µM.

For the compound `COc1cc(CNc2oc(-c3ccccc3)c(-c3ccccc3)c2C#N)cc(CN2CCN(C)CC2)c1O`, the GI50 in the experiment on NCI-H460 lung was 1.89 µM; with BT-549 breast, 1.71 µM; in the experiment with SK-MEL-5 melanoma it was 1.62 µM; with HOP-62 NSCLC, 1.92 µM; with HCC-2998 colon, 1.79 µM; in the experiment on HCT-15 colon it was 1.32 µM. Besides, the GI50 in the experiment with K-562 leukemia was 1.51 µM; with SK-MEL-28 melanoma it was 1.78 µM; in the experiment with HL-60(TB) leukemia it was 1.79 µM; with NCI/ADR-RES ovarian, 2.1 µM. In addition, the TGI in the experiment with NCI-H460 lung came out at 3.55 µM; in the experiment with BT-549 breast, 3.42 µM; in the experiment with SK-MEL-5 melanoma it was 3.05 µM; with HOP-62 NSCLC it was 4.21 µM; in the experiment on HCC-2998 colon it was 3.36 µM; with HCT-15 colon, 2.77 µM. For the same compound, the TGI in the experiment on K-562 leukemia was 4.16 µM; in the experiment with SK-MEL-28 melanoma, 3.24 µM; in the experiment on HL-60(TB) leukemia, 4.19 µM; in the experiment with NCI/ADR-RES ovarian, 4.75 µM.

Consider `COc1cc2nccc(Oc3ccc(NC(=O)c4cn(C(C)C)c(=O)n(-c5ccc(F)cc5)c4=O)cc3F)c2cc1OC`, for which the GI50 in the experiment on NCI-H460 lung is 4.98 µM; in the experiment with BT-549 breast, 3.29 µM; with SK-MEL-5 melanoma it was above 100 µM; with HOP-62 NSCLC, above 69.4 µM; with HCC-2998 colon it was above 100 µM; in the experiment with HCT-15 colon it was above 100 µM. In addition, the GI50 was 0.0442 µM in the experiment with K-562 leukemia, 3.19 µM with SK-MEL-28 melanoma, above 100 µM in the experiment with HL-60(TB) leukemia and above 100 µM with NCI/ADR-RES ovarian. Further, the TGI with NCI-H460 lung is above 100 µM; with BT-549 breast, 11.3 µM; in the experiment on SK-MEL-5 melanoma, above 100 µM; in the experiment with HOP-62 NSCLC, above 100 µM; in the experiment with HCC-2998 colon, above 100 µM; in the experiment with HCT-15 colon, above 100 µM. Further, the TGI with K-562 leukemia was above 100 µM; with SK-MEL-28 melanoma, 18.1 µM; in the experiment on HL-60(TB) leukemia, above 100 µM; with NCI/ADR-RES ovarian, above 100 µM.

`C/C=C(\C)C(=O)OC1/C=C(\C)CC/C=C(\C)CC2OC(=O)C(C)(OC(C)=O)C12` (centres undefined): the TGI in the experiment with NCI-H460 lung, in the experiment with BT-549 breast, with SK-MEL-5 melanoma, in the experiment with HOP-62 NSCLC, in the experiment with HCC-2998 colon and in the experiment on HCT-15 colon was above 100 µM each time. Also, the TGI in the experiment on K-562 leukemia, in the experiment with SK-MEL-28 melanoma, in the experiment on HL-60(TB) leukemia and with NCI/ADR-RES ovarian was above 100 µM each time.

Turning to `CN1CCN(CCCOc2cc(O)c3c(=O)cc(-c4ccccc4)oc3c2)CC1`, the GI50 is 16.7 µM with NCI-H460 lung; 21.1 µM with BT-549 breast; 10.3 µM with SK-MEL-5 melanoma; 16.6 µM in the experiment on HOP-62 NSCLC; 14.3 µM in the experiment with HCC-2998 colon; 4.6 µM in the experiment with HCT-15 colon. Also, the GI50 with K-562 leukemia is 6.98 µM; in the experiment with SK-MEL-28 melanoma, 16.1 µM; with HL-60(TB) leukemia, 19.1 µM; in the experiment with NCI/ADR-RES ovarian it was 18.6 µM. Besides, the TGI in the experiment on NCI-H460 lung came out at 34.5 µM; in the experiment on BT-549 breast, 46 µM; with SK-MEL-5 melanoma, 23.1 µM; in the experiment with HOP-62 NSCLC, 32 µM; in the experiment on HCC-2998 colon, 27.3 µM; in the experiment with HCT-15 colon, 16.3 µM. Moreover, the TGI turned out to be 21.9 µM in the experiment with K-562 leukemia, 30.6 µM with SK-MEL-28 melanoma, 39.5 µM in the experiment on HL-60(TB) leukemia and 43.2 µM with NCI/ADR-RES ovarian.

`CCC1=C(CC2NCCc3ccccc32)CC2c3cc(OC)c(OC)cc3CCN2C1` (centres undefined): the GI50 in the experiment on NCI-H460 lung is 3.28 µM; with BT-549 breast, 9.07 µM; in the experiment on SK-MEL-5 melanoma, 3.39 µM; with HOP-62 NSCLC, 3.6 µM; in the experiment on HCC-2998 colon it was 3.9 µM; in the experiment on HCT-15 colon, 5.17 µM. Moreover, the GI50 was 2.26 µM in the experiment on K-562 leukemia, 4.35 µM in the experiment on SK-MEL-28 melanoma, 2.89 µM with HL-60(TB) leukemia and 6.7 µM in the experiment with NCI/ADR-RES ovarian. Also, the TGI is 11.7 µM and 3.57 µM in the experiment on NCI-H460 lung; 21.2 µM and 9.89 µM with BT-549 breast; 13.1 µM and 2.7 µM in the experiment on SK-MEL-5 melanoma; 17.1 µM and 4.65 µM in the experiment with HOP-62 NSCLC; 15.5 µM and 10.5 µM in the experiment with HCC-2998 colon; 30.8 µM and 20.4 µM in the experiment with HCT-15 colon. Moreover, the TGI in the experiment with K-562 leukemia was 7.41 µM and 2.1 µM; with SK-MEL-28 melanoma, 14.4 µM and 9.26 µM; in the experiment with HL-60(TB) leukemia, 10.7 µM and 5.01 µM; in the experiment on NCI/ADR-RES ovarian, 50.9 µM and 12.4 µM.

Regarding `COC(=O)[C@H](Cc1cn(C)cn1)NC(=O)[C@H](Cc1ccccc1)NC(=O)Nc1cc(C(F)(F)F)cc(C(F)(F)F)c1`, the GI50 is 14.2 µM in the experiment with NCI-H460 lung; 19.2 µM in the experiment on BT-549 breast; 16.2 µM with SK-MEL-5 melanoma; 17.5 µM in the experiment with HOP-62 NSCLC; 3.86 µM in the experiment with HCC-2998 colon; 16.9 µM in the experiment with HCT-15 colon. Also, the GI50 in the experiment with K-562 leukemia was 7.69 µM and 5.97 µM; in the experiment on SK-MEL-28 melanoma, 17.9 µM; with HL-60(TB) leukemia, 16.5 µM; with NCI/ADR-RES ovarian, 23.9 µM. Moreover, the TGI in the experiment on NCI-H460 lung came out at 29.7 µM; in the experiment on BT-549 breast, 34.5 µM; with SK-MEL-5 melanoma, 30.7 µM; in the experiment on HOP-62 NSCLC, 31.9 µM; in the experiment on HCT-15 colon, 42.4 µM; in the experiment on K-562 leukemia it was 20.5 µM. The TGI is 35.2 µM in the experiment on SK-MEL-28 melanoma, 32.7 µM in the experiment on HL-60(TB) leukemia and 61.4 µM in the experiment with NCI/ADR-RES ovarian.
